Measurements as given in ChEMBL document CHEMBL4229523, “Monoterpene's multiple free radical scavenging capacity as compared with the radioprotective agent cysteamine and amifostine” (Bioorg Med Chem Lett, 2018).

Legend:
Format in all cases: functional
[1] = Antioxidant activity assessed as trolox equivalent of singlet oxygen scavenging activity by TMPD spin trap-based ESR spectrometric method
[2] = Antioxidant activity assessed as trolox equivalent of superoxide radical scavenging activity by CYPMPO spin trap-based ESR spectrometric method
[3] = Antioxidant activity assessed as trolox equivalent of methyl radical scavenging activity by DMPO spin trap-based ESR spectrometric method
[4] = Antioxidant activity assessed as trolox equivalent of tert-butyl peroxyl radical scavenging activity by CYPMPO spin trap-based ESR spectrometric method
[5] = Antioxidant activity assessed as trolox equivalent of alkoxyl radical scavenging activity by DMPO spin trap-based ESR spectrometric method
[6] = Antioxidant activity assessed as trolox equivalent of hydroxyl radical scavenging activity by DMPO spin trap-based ESR spectrometric method
[7] = Antioxidant activity assessed as rate of methyl radical scavenging activity by DMPO spin trap-based ESR spectrometric method

Structure (SMILES) | Activity [1] | Activity [2] | Activity [3] | Activity [4] | Activity [5] | Activity [6] | K [7]
NCCCNCCSP(=O)(O)O | 0.17 equiv | 0.3 equiv | 0.2 equiv | 0.058 equiv | 0.054 equiv | 0.76 equiv | 2.8 ×10⁶ /M/s
Cc1ccc(C(C)C)c(O)c1 | 0.16 equiv | 0.24 equiv | 0 equiv | 0.22 equiv | 0.013 equiv | 0.3 equiv | 
NCCS | 1.1 equiv | 0.13 equiv | 0.18 equiv | 0.08 equiv | 0.045 equiv | 1.5 equiv | 2.5 ×10⁶ /M/s
C=CC(C)(O)CCC=C(C)C (configuration not stated) | 0.046 equiv | 0.27 equiv | 0 equiv | 0 equiv | 0.045 equiv | 0.38 equiv | 
CC1CCC(C(C)C)C(O)C1 (configuration not stated) | 0.22 equiv | 0.39 equiv | 0 equiv | 0.31 equiv | 0 equiv | 0.49 equiv | 
